From the NIST ThermoML archive (doi:10.1021/je5009119)
± gives the expanded uncertainty stated by the source.

Experiments:
[1] = 101.33 kPa, Liquid; for viscosity: Capillary tube (Ostwald / Ubbelohde) method; for mass density: Pycnometric method
[2] = mn = molality of the nth substance listed, in mol/kg; settings: 101 kPa, Liquid; for viscosity: Capillary tube (Ostwald / Ubbelohde) method; for mass density: Pycnometric method

OCCO [1,2-ethanediol]
[1]
Settings	mass density [kg/m3]	viscosity [mPa·s]
298.15 K	–	16.2 ± 0.2
303.15 K	1106.6 ± 1.3	14.1 ± 0.2
308.15 K	–	11.6 ± 0.1
313.15 K	1099.3 ± 1.3	9.75 ± 0.11
318.15 K	–	7.91 ± 0.1

OCCO [1,2-ethanediol] + NC(N)=O
[2], m2 = 0
Settings	mass density [kg/m3]	viscosity [mPa·s]
298.15 K	–	16.2 ± 0.2
303.15 K	1106.6 ± 1.3	14.1 ± 0.2
308.15 K	–	11.6 ± 0.1
313.15 K	1099.3 ± 1.3	9.75 ± 0.11
318.15 K	–	7.91 ± 0.1

NC(N)=O [urea] + OCCO
[2]
Settings	mass density, 298.15 K [kg/m3]	mass density, 303.15 K [kg/m3]	mass density, 308.15 K [kg/m3]	mass density, 313.15 K [kg/m3]	mass density, 318.15 K [kg/m3]	viscosity, 298.15 K [mPa·s]	viscosity, 303.15 K [mPa·s]	viscosity, 308.15 K [mPa·s]	viscosity, 313.15 K [mPa·s]	viscosity, 318.15 K [mPa·s]
m1 = 0.877	1118.4 ± 1.5	1114.8 ± 1.5	1111.1 ± 1.5	1107.8 ± 1.5	1103.9 ± 1.5	17 ± 0.2	14.9 ± 0.2	12.1 ± 0.2	10.1 ± 0.1	8.13 ± 0.1
m1 = 1.852	1127.9 ± 1.7	1124.4 ± 1.7	1120.7 ± 1.7	1117.4 ± 1.7	1113.6 ± 1.7	18.5 ± 0.2	16 ± 0.2	13 ± 0.2	10.8 ± 0.1	8.68 ± 0.11
m1 = 2.939	1137.2 ± 1.9	1133.7 ± 1.9	1130 ± 1.9	1126.8 ± 1.9	1122.9 ± 1.9	20.4 ± 0.3	17.5 ± 0.2	14.1 ± 0.2	11.6 ± 0.2	9.31 ± 0.13
m1 = 4.162	1146.3 ± 2.1	1142.9 ± 2.1	1139.1 ± 2.1	1135.9 ± 2.1	1132.1 ± 2.1	22.1 ± 0.3	18.8 ± 0.3	15.1 ± 0.2	12.4 ± 0.2	9.86 ± 0.14
m1 = 5.549	1155.3 ± 2.4	1151.9 ± 2.4	1148.1 ± 2.4	1144.9 ± 2.4	1141 ± 2.4	24 ± 0.3	20.2 ± 0.3	16.1 ± 0.2	13.2 ± 0.2	10.4 ± 0.2
m1 = 7.137	1164.4 ± 2.6	1161.1 ± 2.6	1157.4 ± 2.6	1154.1 ± 2.6	1150.3 ± 2.6	25.7 ± 0.4	21.5 ± 0.3	17.1 ± 0.3	13.9 ± 0.2	11 ± 0.2
